Reference: patent publication US20080167330A1, “Carbamoylsulphoximides as protein kinase inhibitors” (priority 2006, published 2008)
pIC50: −log10 of the molar value.

Tests used:
Assay type in all cases: biochemical
CDK2/CycE = biological target: T1, CDK2/CycE (Homo sapiens, UniProt P24941); test: CDK2/CycE kinase assay; conditions: 0.5 μM ATP
T1 construct: GST; purchased ProQinase GmbH, Freiburg; host or cells: baculovirus-infected insect cells (Sf9)
Method: Recombinant CDK2- and CycE-GST fusion proteins, purified from baculovirus-infected insect cells (Sf9), were purchased from ProQinase GmbH, Freiburg. The histone IIIS used as kinase substrate was purchased from Sigma. CDK2/CycE (1.25 ng/μL) was incubated in the presence of various concentrations of test substances (0 μM, and within the range 0.01-100 μM) in 40 μL of assay buffer [50 mM Tris/HCl pH 8.0, 10 mM MgCl2, 0.1 mM Na ortho-vanadate, 1.0 mM dithiothreitol, 0.5 μM ATP, 0.2% PEG20000, 10 μM histone IIIS, 0.2 μCi/measurement point ^33P-gamma ATP, 0.05% NP40, 1.25% dimethyl sulphoxide] at 22° C. for 10 min. The reaction was stopped by adding EDTA solution (250 mM, pH 8.0, 15 μl/measurement point).
15 μl of each reaction mixture were loaded onto P30 filter strips (from Wallac), and non-incorporated ^33P-ATP was removed by washing the filter strips three times in 0.5% strength phosphoric acid for 10 min each time.
(§1) After the filter strips had been dried at 70° C. for 1 hour, the filter strips were covered with scintillator strips (MeltiLex™ A, from Wallac) and baked at 90° C. for 1 hour. The amount of incorporated ^33P (substrate phosphorylation) was determined by scintillation measurement in a gamma radiation counter (Wallac).
(§2) The measured data were normalized to 0% inhibition (enzyme reaction without inhibitor) and 100% inhibition (all assay components except enzyme). The IC50 values were determined by means of a 4-parameter fit using the company's own software.

KDR (VEGFR2) = biological target: T2, KDR (VEGFR2) (Homo sapiens, UniProt P35968); test: KDR kinase assay; conditions: 8 μM ATP
T2 construct: GST; purchased ProQinase GmbH, Freiburg; host or cells: baculovirus-infected insect cells (Sf9)
T2 sequence (P35968 807-1356 limits assumed): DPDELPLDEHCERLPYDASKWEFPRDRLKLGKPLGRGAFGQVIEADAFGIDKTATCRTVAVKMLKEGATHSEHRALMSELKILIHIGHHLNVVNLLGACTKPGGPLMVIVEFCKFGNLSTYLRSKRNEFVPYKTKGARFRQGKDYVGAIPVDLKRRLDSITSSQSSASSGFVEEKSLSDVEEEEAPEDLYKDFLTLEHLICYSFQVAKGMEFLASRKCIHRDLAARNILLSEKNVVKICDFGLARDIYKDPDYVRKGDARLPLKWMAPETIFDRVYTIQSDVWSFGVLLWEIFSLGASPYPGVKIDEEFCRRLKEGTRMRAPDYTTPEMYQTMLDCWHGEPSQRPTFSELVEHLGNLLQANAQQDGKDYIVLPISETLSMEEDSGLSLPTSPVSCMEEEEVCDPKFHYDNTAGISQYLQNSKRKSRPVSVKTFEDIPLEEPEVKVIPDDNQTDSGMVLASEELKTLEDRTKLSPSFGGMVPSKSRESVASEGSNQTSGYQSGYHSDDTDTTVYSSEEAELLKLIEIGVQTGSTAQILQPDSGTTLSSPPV
Method: Recombinant KDR kinase-GST fusion proteins purified from baculovirus-infected insect cells (Sf9), were purchased from ProQinase GmbH, Freiburg. Poly(Glu4Tyr)n, which was used as kinase substrate, was purchased from Sigma.
KDR kinase was incubated in the presence of various concentrations of test substances (0 μM, and within the range 0.01-100 μM) in 40 μL of assay buffer [40 mM Tris/HCl pH 7.5, 10 mM MgCl2, 1 mM MnCl2, 1.0 mM dithiothreitol, 8 μM ATP, 0.025% PEG20000, 24 ng/μL poly(Glu4Tyr)n, 0.2 μCi/measurement point ^33P-gamma ATP, 1.25% dimethyl sulphoxide] at 22° C. for 10 min. The reaction was stopped by adding EDTA solution (250 mM, pH 7.5, 15 μl/measurement point). 15 μl of each reaction mixture were loaded onto P30 filter strips (from Wallac), and non-incorporated ^33P-ATP was removed by washing the filter strips three times in 0.5% strength phosphoric acid for 10 min each time.
as §1, §2

[1] = test system: Aurora C, CDK1/CycB, CDK2/CycE, KDR (VEGFR2); test: various kinase assays taken together (selectivity profile); conditions: comparison across the kinase assays, in words
Method: The compounds of Examples 1 to 22 were tested for their inhibitory effect in the various kinase assays and in a proliferation assay with MCF7 human breast tumour cells (Tab. 1). […] Exemplary compounds 1-8, 10-12, 15, 17-20 inhibit the proliferation of human MCF7 breast tumour cells with half-maximum concentrations in the submicromolar range.

## COc1ccc(Nc2ncc(Br)c(N[C@H](C)[C@@H](C)O)n2)cc1NC(=O)N=S(C)(C)=O [Example 10, N-({5-[(5-Bromo-4-{[(1R,2R)-2-hydroxy-1-methylpropyl]amino}pyrimidin-2-yl)amino]-2-methoxyphenyl}carbamoyl)-S,S-dimethylsulphoximide]
CDK2/CycE
  pIC50: 7.70
KDR (VEGFR2)
  pIC50: 6.49

## C[C@@H](Nc1nc(Nc2ccc(C(=O)N=S(C)(C)=O)cc2)ncc1Br)C(C)(C)O [Example 19, N-{4-[(5-Bromo-4-{[(R)-2-hydroxy-1,2-dimethylpropyl]amino}pyrimidin-2-yl)amino]benzoyl}S,S-dimethylsulphoximide]
CDK2/CycE
  pIC50: 7.96
KDR (VEGFR2)
  pIC50: 6.92

## C[C@@H](O)[C@@H](C)Nc1nc(Nc2cccc(C(=O)N=S(C)(C)=O)c2)ncc1Br [Example 17, N-{3-[(5-Bromo-4-{[(1R,2R)-2-hydroxy-1-methylpropyl]amino}pyrimidin-2-yl)amino]benzoyl}-S,S-dimethylsulphoximide]
CDK2/CycE
  pIC50: 8.05
KDR (VEGFR2)
  pIC50: 6.48
[1]
  selectivity profile: CDK-selective

## C[C@@H](Nc1nc(Nc2cccc(NC(=O)N=S(C)(C)=O)c2)ncc1Br)C(C)(C)O [Example 1, N-({3-[(5-Bromo-4-{[(R)-2-hydroxy-1,2-dimethylpropyl]amino}pyrimidin-2-yl)amino]phenyl}carbamoyl)-S,S-dimethylsulphoximide]
CDK2/CycE
  pIC50: 8.05
KDR (VEGFR2)
  pIC50: 6.77

## C[C@@H](O)[C@@H](C)Oc1nc(Nc2ccc(NC(=O)N=S(C)(C)=O)cc2)ncc1Br [Example 4, N-({4-[(5-Bromo-4-{[(1R,2R)-2-hydroxy-1-methylpropyl]oxy}pyrimidin-2-yl)amino]phenyl}carbamoyl)-S,S-dimethylsulphoximide]
CDK2/CycE
  pIC50: 8.30
KDR (VEGFR2)
  pIC50: 6.80

## C[C@@H](O)[C@@H](C)Oc1nc(Nc2cccc(NC(=O)N=S(C)(C)=O)c2)ncc1Br [Example 6, N-({3-[(5-Bromo-4-{[(1R,2R)-2-hydroxy-1-methylpropyl]oxy}pyrimidin-2-yl)amino]phenyl}carbamoyl)-S,S-dimethylsulphoximide]
CDK2/CycE
  pIC50: 8.15
KDR (VEGFR2)
  pIC50: 6.89

## C[C@@H](O)[C@@H](C)Nc1nc(Nc2ccc(F)c(NC(=O)N=S(C)(C)=O)c2)ncc1Br [Example 7, N-({5-[(5-Bromo-4-{[(1R,2R)-2-hydroxy-1-methylpropyl]amino}pyrimidin-2-yl)amino]-2-fluorophenyl}carbamoyl)-S,S-dimethylsulphoximide]
CDK2/CycE
  pIC50: 8.52
KDR (VEGFR2)
  pIC50: 6.52

## Cc1ccc(Nc2ncc(Br)c(N[C@H](C)[C@@H](C)O)n2)cc1NC(=O)N=S(C)(C)=O [Example 8, N-({5-[(5-Bromo-4-{[(1R,2R)-2-hydroxy-1-methylpropyl]amino}pyrimidin-2-yl)amino]-2-methylphenyl}carbamoyl)-S,S-dimethylsulphoximide]
CDK2/CycE
  pIC50: 7.92
KDR (VEGFR2)
  pIC50: 6.89

## COc1cc(Nc2ncc(Br)c(N[C@H](C)[C@@H](C)O)n2)ccc1NC(=O)N=S(C)(C)=O [Example 11, N-({4-[(5-Bromo-4{[(1R,2R)-2-hydroxy-1-methylpropyl]amino}pyrimidin-2-yl)amino]-2-methoxyphenyl}carbamoyl)-S,S-dimethylsulphoximide]
CDK2/CycE
  pIC50: 7.72
KDR (VEGFR2)
  pIC50: 7.02

## C[C@@H](O)[C@@H](C)Nc1nc(Nc2ccc(Cl)c(NC(=O)N=S(C)(C)=O)c2)ncc1Br [Example 12, N-({5-[(5-Bromo-4-{[(1R,2R)-2-hydroxy-1-methylpropyl]amino}pyrimidin-2-yl)amino]-2-chlorophenyl}carbamoyl)-S,S-dimethylsulphoximide]
CDK2/CycE
  pIC50: 8.05
KDR (VEGFR2)
  pIC50: 6.46

## CS(C)(=O)=NC(=O)Nc1ccc(Nc2ncc(Br)c(Nc3ccc4[nH]cnc4c3)n2)cc1 [Example 16, N-[(4-{[4-(1H-Benzimidazol-5-ylamino)-5-bromopyrimidin-2-yl]amino}phenyl)-carbamoyl]-S,S-dimethylsulphoximide]
CDK2/CycE
  pIC50: 6.48
KDR (VEGFR2)
  pIC50: 7.19
[1]
  selectivity profile: preferential KDR inhibition

## C[C@@H](O)[C@@H](C)Nc1nc(Nc2ccc(NC(=O)N=S(C)(C)=O)cc2)ncc1C(F)(F)F [Example 15]
CDK2/CycE
  pIC50: 8.05
KDR (VEGFR2)
  pIC50: 5.96
[1]
  selectivity profile: CDK-selective

## C[C@@H](O)[C@@H](C)Oc1nc(Nc2ccc(C(=O)N=S(C)(C)=O)cc2)ncc1Br [Example 20, N-{4-[(5-Bromo-4-{[(1R,2R)-2-hydroxy-1-methylpropyl]oxy}pyrimidin-2-yl)amino]benzoyl}-S,S-dimethylsulphoximide]
CDK2/CycE
  pIC50: 7.92
KDR (VEGFR2)
  pIC50: 7.02

## C[C@@H](O)[C@@H](C)Nc1nc(Nc2ccc(NC(=O)N=S(C)(C)=O)cc2)ncc1Br [Example 3, N-({4-[(5-Bromo-4-{[(1R,2R)-2-hydroxy-1-methylpropyl]amino}pyrimidin-2-yl)amino]phenyl}carbamoyl)-S,S-dimethylsulphoximide]
CDK2/CycE
  pIC50: 8.30
KDR (VEGFR2)
  pIC50: 6.92

## C[C@@H](O)[C@@H](C)Nc1nc(Nc2ccc(C(=O)N=S(C)(C)=O)cc2)ncc1Br [Example 18, N-{4-[(5-Bromo-4-{[(1R,2R)-2-hydroxy-1-methylpropyl]amino}pyrimidin-2-yl)amino]benzoyl}-S,S-dimethylsulphoximide]
CDK2/CycE
  pIC50: 8.05
KDR (VEGFR2)
  pIC50: 7.21

## C[C@@H](Nc1nc(Nc2ccc(NC(=O)N=S(C)(C)=O)cc2)ncc1Br)C(C)(C)O [Example 2, N-({4-[(5-Bromo-4-{[(R)-2-hydroxy-1,2-dimethylpropyl]amino}pyrimidin-2-yl)-amino]phenyl}carbamoyl)-S,S-dimethylsulphoximide]
CDK2/CycE
  pIC50: 8.00
KDR (VEGFR2)
  pIC50: 6.64

## C[C@@H](O)[C@@H](C)Nc1nc(Nc2cccc(NC(=O)N=S(C)(C)=O)c2)ncc1Br [Example 5, N-({3-[(5-Bromo-4-{[(1R,2R)-2-hydroxy-1-methylpropyl]amino}pyrimidin-2-yl)amino]phenyl}carbamoyl)-S,S-dimethylsulphoximide]
CDK2/CycE
  pIC50: 8.30
KDR (VEGFR2)
  pIC50: 7.20
